PubChem BioAssay AID2060508 (Molecular Pharmacology Branch, DTP, NCI, 2025)

Test system: 454973-116-R2-J3-PDC spheroids, viability, % test/control
Assay: Anticancer human tumor 454973-116-R2-J3-PDC patient-derived pancreatic carcinoma cell line growth inhibition [GQUAD]
Conditions: spheroids with HUVEC and MSC; for IC50: curve of first compound; for viability, T/C: stronger effect = lower value
Excerpt: DNA G-quadruplex Stabilizer Agents in Combinations in Complex Spheroids
A high-throughput screen of multi-cell type tumor spheroids was designed to identify active combinations of DNA G-quadruplex stabilizer agents and targeted small molecules. Complex spheroids include a stromal component modeled by human endothelial cells (HUVEC) and fibroblasts modeled by human mesenchymal stem cells (MSCs). The concentration ranges selected for each drug and investigational agent were based upon clinically achievable concentrations if the clinical Cmax of the agent was known.
Compounds. The drugs and investigational agents: pidnarulex (CX-5461; NSC782164), APTO-253 (NSC789042), BRACO-19 (NSC847499), peposertib (NSC802822), ceralasertib (NSC780249), elimusertib (NSC800525), camonsertib (NSC841442), AZD-1390 (NSC803789), olaparib (NSC753686), talazoparib (NSC767125), ART-558 (NSC835418), sotorasib (NSC818433), MRTX-1133 (NSC836407), SN-38 (NSC673596), topotecan (NSC609699), etoposide (NSC141540), doxorubicin (NSC123127), gemcitabine (NSC613327), 5-fluorouracil (NSC19893), paclitaxel (NSC125973), vemurafenib (NSC761431), panobinostat (NSC761190), R-306465 (JNJ-16241199; NSC773264), adavosertib (NSC754352), TP-3654 (NSC805149), carboplatin (NSC241240), KSQ-4279 (NSC840948), and staurosporine (NSC755774) were obtained from the National Cancer Institute (NCI) Developmental Therapeutics Program Chemical Repository (34). The FDA-approved anticancer drug set is available from the NCI Developmental Therapeutics Program. […] The stock solutions were prepared in dimethyl sulfoxide (DMSO, Sigma-Aldrich, St. Louis, MO, cat. D2650) at 800-fold the tested concentration and stored at -70 degrees C prior to their use. All drugs and investigational agents were tested over a range starting from a high concentration at or near the clinical Cmax and decreasing in half-log increments. If the clinical Cmax for an agent had not been determined, the highest concentration tested was 10 microM.
2.3 Cell Culture. All cells were maintained in an incubator at 37 degrees C and 5% CO2 with 95% humidity. The PDC lines were cultured according to standard operating procedures established by the NCI PDMR. All PDCs were thawed and cultured in Matrigel-coated flasks prepared with a working solution of 1X Ham's F-12 nutrient mix, without supplementation (Invitrogen, cat. 11765054), 100 U/mL penicillin-streptomycin (Invitrogen, cat. 15140122), and 2.5% Matrigel (Corning Inc., cat. 354248) for the first three passages. The 857933-349-R-J2-PDC line was cultured in 6C/Colon 1B media, which includes advanced DMEM/F-12 (Thermo Fisher Scientific, cat. 12634028), 10 mM HEPES (Thermo Fisher Scientific, cat. 15630080), 1X GlutaMAX supplement (Thermo Fisher Scientific, cat. 35050061), 0.1 mg/mL primocin (InvivoGen, cat. ant-pm-2), 10% defined fetal bovine serum, heat inactivated (HyClone Laboratories Inc., cat. SH30070.03HI), 50% L-WRN conditioned media (ATCC, cat. CRL-3276), 1.25 mM N-Acetyl-L-cysteine (Sigma-Aldrich, cat. A9165), 10 mM nicotinamide (Sigma-Aldrich, cat. N0636), 1X B-27 supplement (Thermo Fisher Scientific, cat. 17504044), 1X N-2 supplement (Thermo Fisher Scientific, cat. 17502048), 10 microM Y-27632 dihydrochloride (Tocris Bioscience, cat. 1254), and 50 ng/mL human EGF recombinant protein (Thermo Fisher Scientific, cat. PHG0311). The 485176-168-R4-J1-PDC line was cultured in Panc media, which includes all 6C/Colon 1B media components plus 100 ng/mL human FGF-10 (Thermo Fisher Scientific, cat. 100-26), 500 nM SB-431542 (Selleckchem, cat. S1067), and gastrin (Tocris, cat. 3006).
[…]

[1] = second compound 0.0316 µM, first compound 0.0316 µM
[2] = second compound 0.0316 µM, first compound 0.1 µM
[3] = second compound 0.0316 µM, first compound 0.316 µM
[4] = second compound 0.0316 µM, first compound 1 µM
[5] = second compound 0.0316 µM, first compound 3.16 µM
[6] = second compound 0.0316 µM, first compound 10 µM
[7] = second compound 0.1 µM, first compound 0.0316 µM
[8] = second compound 0.1 µM, first compound 0.1 µM
[9] = second compound 0.1 µM, first compound 0.316 µM
[10] = second compound 0.1 µM, first compound 1 µM
[11] = second compound 0.1 µM, first compound 3.16 µM
[12] = second compound 0.1 µM, first compound 10 µM
[13] = second compound 0.316 µM, first compound 0.0316 µM
[14] = second compound 0.316 µM, first compound 0.1 µM
[15] = second compound 0.316 µM, first compound 0.316 µM
[16] = second compound 0.316 µM, first compound 1 µM
[17] = second compound 0.316 µM, first compound 3.16 µM
[18] = second compound 0.316 µM, first compound 10 µM
[19] = second compound 1 µM, first compound 0.0316 µM
[20] = second compound 1 µM, first compound 0.1 µM
[21] = second compound 1 µM, first compound 0.316 µM
[22] = second compound 1 µM, first compound 1 µM
[23] = second compound 1 µM, first compound 3.16 µM
[24] = second compound 1 µM, first compound 10 µM
[25] = second compound 3.16 µM, first compound 0.0316 µM
[26] = second compound 3.16 µM, first compound 0.1 µM
[27] = second compound 3.16 µM, first compound 0.316 µM
[28] = second compound 3.16 µM, first compound 1 µM
[29] = second compound 3.16 µM, first compound 3.16 µM
[30] = second compound 3.16 µM, first compound 10 µM
[31] = second compound 10 µM, first compound 0.0316 µM
[32] = second compound 10 µM, first compound 0.1 µM
[33] = second compound 10 µM, first compound 0.316 µM
[34] = second compound 10 µM, first compound 1 µM
[35] = second compound 10 µM, first compound 3.16 µM
[36] = second compound 10 µM, first compound 10 µM
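Further: spheroids exposed to compounds for seven days.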

Nc1ccn(C2OC(CO)C(O)C2(F)F)c(=O)n1 (centres undefined) + CN(C)c1ccc(Nc2c3ccc(NC(=O)CCN4CCCC4)cc3nc3cc(NC(=O)CCN4CCCC4)ccc23)cc1
IC50 (second compound 0.0316 µM): < 0.0316 µM
IC50 (second compound 0.1 µM): < 0.0316 µM
IC50 (second compound 0.316 µM): < 0.0316 µM
IC50 (second compound 1 µM): < 0.0316 µM
IC50 (second compound 3.16 µM): < 0.0316 µM
IC50 (second compound 10 µM): < 0.0316 µM
viability, T/C [1]: 19%
viability, T/C [2]: 13.3%
viability, T/C [3]: 16.6%
viability, T/C [4]: 13.1%
viability, T/C [5]: 14.7%
viability, T/C [6]: 15.6%
viability, T/C [7]: 20.7%
viability, T/C [8]: 13.5%
viability, T/C [9]: 14.9%
viability, T/C [10]: 16.6%
viability, T/C [11]: 13.2%
viability, T/C [12]: 15.4%
viability, T/C [13]: 16.9%
viability, T/C [14]: 15.3%
viability, T/C [15]: 15.3%
viability, T/C [16]: 14.8%
viability, T/C [17]: 13.3%
viability, T/C [18]: 14.8%
viability, T/C [19]: 15.6%
viability, T/C [20]: 14.4%
viability, T/C [21]: 16.4%
viability, T/C [22]: 14%
viability, T/C [23]: 14.2%
viability, T/C [24]: 15.9%
viability, T/C [25]: 18%
viability, T/C [26]: 14.7%
viability, T/C [27]: 17.4%
viability, T/C [28]: 13.3%
viability, T/C [29]: 14.6%
viability, T/C [30]: 14.7%
viability, T/C [31]: 22.8%
viability, T/C [32]: 14.2%
viability, T/C [33]: 16.9%
viability, T/C [34]: 17.6%
viability, T/C [35]: 19.7%
viability, T/C [36]: 19.8%

CC1COCCN1c1cc(C2(S(C)(=N)=O)CC2)nc(-c2ccnc3[nH]ccc23)n1 (centres undefined) + Cc1[nH]c2ccc(F)cc2c1-c1nc2c3cccnc3c3ncccc3c2[nH]1
IC50 (second compound 0.0316 µM): 5.87 µM
IC50 (second compound 0.1 µM): 5.36 µM
IC50 (second compound 0.316 µM): 5.07 µM
IC50 (second compound 1 µM): 6.49 µM
IC50 (second compound 3.16 µM): 4.68 µM
IC50 (second compound 10 µM): 3.49 µM
viability, T/C [1]: 101%
viability, T/C [2]: 102%
viability, T/C [3]: 121%
viability, T/C [4]: 96.5%
viability, T/C [5]: 76%
viability, T/C [6]: 28.1%
viability, T/C [7]: 106%
viability, T/C [8]: 96.9%
viability, T/C [9]: 110%
viability, T/C [10]: 107%
viability, T/C [11]: 68.7%
viability, T/C [12]: 27.9%
viability, T/C [13]: 99.7%
viability, T/C [14]: 110%
viability, T/C [15]: 110%
viability, T/C [16]: 103%
viability, T/C [17]: 64.8%
viability, T/C [18]: 28.7%
viability, T/C [19]: 106%
viability, T/C [20]: 104%
viability, T/C [21]: 109%
viability, T/C [22]: 108%
viability, T/C [23]: 72.6%
viability, T/C [24]: 36.5%
viability, T/C [25]: 98.3%
viability, T/C [26]: 105%
viability, T/C [27]: 95.7%
viability, T/C [28]: 87%
viability, T/C [29]: 60.2%
viability, T/C [30]: 30.3%
viability, T/C [31]: 86.7%
viability, T/C [32]: 84%
viability, T/C [33]: 89.6%
viability, T/C [34]: 86.2%
viability, T/C [35]: 51.8%
viability, T/C [36]: 30.1%
